Laboratory results published in ChEMBL document CHEMBL1201862, “PubChem BioAssay data set” (2004).
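Briefly, cells in 96-well plates were exposed to five compound concentrations for 48 h, and endpoints were estimated by linear interpolation. GI50 is the concentration that inhibits growth by half.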 Active and inactive are the calls of the source. Rule as the data show it: active = GI50 up to about 1.1 µM and inactive = higher.

Experiments:
Assay in all cases: NCI-60 cell line screen, 48 h
T47D = test system: T47D
SW-620 = test system: SW-620
NCI-H226 = test system: NCI-H226
786-0 = test system: 786-0
MOLT-4 = test system: MOLT-4
K562 = test system: K562
TK-10 = test system: TK-10
Malme-3M = test system: Malme-3M
SK-MEL-5 = test system: SK-MEL-5
MDA-MB-231 = test system: MDA-MB-231
SNB-19 = test system: SNB-19
ACHN = test system: ACHN
OVCAR-4 = test system: OVCAR-4
HCT-15 = test system: HCT-15
NCI-H23 = test system: NCI-H23
NCI-H460 = test system: NCI-H460
CAKI-1 = test system: CAKI-1
MDA-N = test system: MDA-N
RXF 393 = test system: RXF 393
SK-OV-3 = test system: SK-OV-3
CCRF-CEM = test system: CCRF-CEM
MDA-MB-435 = test system: MDA-MB-435
UACC-62 = test system: UACC-62
A498 = test system: A498
Hs-578T = test system: Hs-578T
SF-295 = test system: SF-295
UACC-257 = test system: UACC-257
HCT-116 = test system: HCT-116
SF-268 = test system: SF-268
HCC 2998 = test system: HCC 2998
COLO 205 = test system: COLO 205
HOP-62 = test system: HOP-62
HOP-92 = test system: HOP-92
U-251 = test system: U-251
KM12 = test system: KM12
SN12C = test system: SN12C
UO-31 = test system: UO-31
OVCAR-8 = test system: OVCAR-8
SK-MEL-28 = test system: SK-MEL-28
SF-539 = test system: SF-539
IGROV-1 = test system: IGROV-1
OVCAR-5 = test system: OVCAR-5
NCI-H522 = test system: NCI-H522
M14 = test system: M14
PC-3 = test system: PC-3
HL-60 = test system: HL-60
SNB-75 = test system: SNB-75
OVCAR-3 = test system: OVCAR-3
A549 = test system: A549
RPMI-8226 = test system: RPMI-8226
SK-MEL-2 = test system: SK-MEL-2
EKVX = test system: EKVX
LOX IMVI = test system: LOX IMVI
BT-549 = test system: BT-549
NCI/ADR-RES = test system: NCI/ADR-RES
MCF7 = test system: MCF7
DU-145 = test system: DU-145
HT-29 = test system: HT-29

C[C@]12CC[C@H]3[C@@H](CC=C4C[C@@H](O)CC[C@@]43C)[C@@H]1C[C@H](N1CCOCC1)[C@@H]2O
GI50 (T47D): > 100 µM (inactive)
GI50 (SW-620): > 100 µM (inactive)
GI50 (NCI-H226): > 100 µM (inactive)
GI50 (786-0): 81.5 µM (inactive)
GI50 (MOLT-4): > 100 µM (inactive)
GI50 (K562): 68.4 µM (inactive)
GI50 (TK-10): > 100 µM (inactive)
GI50 (Malme-3M): > 100 µM (inactive)
GI50 (SK-MEL-5): 77.3 µM (inactive)
GI50 (MDA-MB-231): 54.3 µM (inactive)
GI50 (SNB-19): > 100 µM (inactive)
GI50 (ACHN): > 100 µM (inactive)
GI50 (OVCAR-4): > 100 µM (inactive)
GI50 (HCT-15): > 100 µM
GI50 (NCI-H23): > 100 µM (inactive)
GI50 (NCI-H460): > 100 µM (inactive)
GI50 (CAKI-1): > 100 µM (inactive)
GI50 (MDA-N): > 100 µM (inactive)
GI50 (RXF 393): 52.4 µM (inactive)
GI50 (SK-OV-3): > 100 µM (inactive)
GI50 (CCRF-CEM): > 100 µM (inactive)
GI50 (MDA-MB-435): > 100 µM (inactive)
GI50 (UACC-62): > 100 µM (inactive)
GI50 (A498): 89.3 µM (inactive)
GI50 (Hs-578T): 85.5 µM (inactive)
GI50 (SF-295): > 100 µM (inactive)
GI50 (UACC-257): > 100 µM (inactive)
GI50 (HCT-116): > 100 µM (inactive)
GI50 (SF-268): > 100 µM (inactive)
GI50 (HCC 2998): > 100 µM (inactive)
GI50 (COLO 205): > 100 µM (inactive)
GI50 (HOP-62): > 100 µM (inactive)
GI50 (HOP-92): > 100 µM (inactive)
GI50 (U-251): 49.2 µM (inactive)
GI50 (KM12): > 100 µM (inactive)
GI50 (SN12C): > 100 µM (inactive)
GI50 (UO-31): > 100 µM (inactive)
GI50 (OVCAR-8): > 100 µM (inactive)
GI50 (SK-MEL-28): > 100 µM (inactive)
GI50 (SF-539): 40 µM (inactive)
GI50 (IGROV-1): > 100 µM (inactive)
GI50 (OVCAR-5): > 100 µM (inactive)
GI50 (NCI-H522): > 100 µM (inactive)
GI50 (M14): > 100 µM (inactive)
GI50 (PC-3): > 100 µM (inactive)
GI50 (HL-60): 48.5 µM (inactive)
GI50 (SNB-75): 28.4 µM (inactive)
GI50 (OVCAR-3): > 100 µM (inactive)
GI50 (A549): > 100 µM (inactive)
GI50 (RPMI-8226): > 100 µM (inactive)
GI50 (SK-MEL-2): > 100 µM (inactive)
GI50 (EKVX): > 100 µM (inactive)
GI50 (LOX IMVI): > 100 µM (inactive)
GI50 (BT-549): 27.9 µM (inactive)
GI50 (NCI/ADR-RES): > 100 µM (inactive)
GI50 (MCF7): > 100 µM (inactive)
GI50 (DU-145): > 100 µM (inactive)
GI50 (HT-29): 6.34 µM (inactive)
